The record followed here is patent US11345957B2, “Methods of treating glioblastoma in a subject informed by exosomal RNA signatures” (Exosome Diagnostics, Inc., priority 2017, dated 2022).

The assay relates to patients diagnosed with glioblastoma mutliforme (GBM). Briefly: Response of GBM patients to Dacomitinib treatment. The format is in vivo, human. An excerpt:
Serum samples were collected from 14 patients diagnosed with glioblastoma mutliforme (GBM) before the administration of Dacomitinib (pre-treatment samples) and 1 month after the initiation of Dacomitinib treatment (post-treatment samples). Of the 14 patients, 7 were deemed to be “responders” to the drug and stayed on the drug for more than 6 months.

In the case of `COc1cc2ncnc(Nc3ccc(F)c(Cl)c3)c2cc1NC(=O)/C=C/CN1CCCCC1` [Dacomitinib], the “time responders stayed on the drug” value (7 responders of 14 GBM patients) is on record as “more than 6 months”. Moreover, the “patients deemed to be "responders" to the drug” value (of the 14 patients diagnosed with GBM) came out at 7.
